The assay in a line: Binding affinity was determined against Opioid receptor delta 1 from guinea pig brain membranes.

SMILES strings stand for the structures. pKi: −log10 of the molar value.

In turn, `COCC[C@H]1CC2CN3CCc4c([nH]c5ccccc45)[C@](C(=O)OC)(C2)C13` [18-methoxycoronaridine] gave a pKi of 5.46.

For the origin of these results see BindingDB's records for doi:10.1021/jm020562o (University of Vermont, 2003).
